In brackets after ≈: the same amount, converted by molar mass.
Assays:
Escherichia coli = test: Antimicrobial activity against Escherichia coli ATCC 25922 after 48 hrs by broth dilution technique; type: functional; conditions: ATCC 25922, 48 h
Staphylococcus aureus [1] = test: Antimicrobial activity against methicillin-resistant Staphylococcus aureus ATCC 43866 after 48 hrs by broth dilution technique; type: functional; conditions: ATCC 43866, 48 h
Klebsiella pneumoniae = test: Antimicrobial activity against Klebsiella pneumoniae after 48 hrs by broth dilution technique; type: functional
Candida albicans [2] = test: Ratio of Amphotericin B MIC to compound MIC for Candida albicans after 48 hrs by broth dilution technique; type: functional
Staphylococcus aureus [3] = test: Antimicrobial activity against methicillin-sensitive Staphylococcus aureus ATCC 35556 after 48 hrs by broth dilution technique; type: functional; conditions: ATCC 35556, 48 h
Candida albicans [4] = test: Antimicrobial activity against Candida albicans after 48 hrs by agar dilution method; type: functional
[5] = system: Mycobacterium tuberculosis; test: Antitubercular activity against Mycobacterium tuberculosis H37Rv after 7 days by Resazurin micro titer assay; type: functional; conditions: 168 h
Vero = test: Cytotoxicity against African green monkey Vero cells assessed as reduction in cell viability after 72 hrs by MTT assay; type: cell-based; conditions: Chlorocebus sabaeus

Structure (SMILES) | MIC (Escherichia coli) | MIC (Staphylococcus aureus [1]) | MIC (Klebsiella pneumoniae) | Ratio (Candida albicans [2]) | MIC (Staphylococcus aureus [3]) | MIC (Candida albicans [4]) | MIC [5] | IC50 (Vero)
Cn1cc([N+](=O)[O-])cc1C(=O)NNC(=O)Nc1ccc(Cl)cc1 | 1.56 µg/mL (≈ 4.62 µM) | 3.12 µg/mL (≈ 9.25 µM) | 3.12 µg/mL (≈ 9.25 µM) | 2 | 1.56 µg/mL (≈ 4.62 µM) | 1.56 µg/mL (≈ 4.62 µM) | 30.5 µg/mL (≈ 90.3 µM) | 290 µM
COc1ccc(OC)c(NC(=O)NNC(=O)c2cc([N+](=O)[O-])cn2C)c1 | 1.56 µg/mL (≈ 4.29 µM) | 6.25 µg/mL (≈ 17.2 µM) | 6.25 µg/mL (≈ 17.2 µM) | 2 | 3.12 µg/mL (≈ 8.6 µM) | 1.56 µg/mL (≈ 4.29 µM) | 42.4 µg/mL (≈ 117 µM) | 429 µM
C=[N+]([O-])c1cc(C(=O)NNC(=O)NCc2ccccc2)n(C)c1 | 3.12 µg/mL (≈ 9.91 µM) | 3.12 µg/mL (≈ 9.91 µM) | 3.12 µg/mL (≈ 9.91 µM) | 2 | 1.56 µg/mL (≈ 4.95 µM) | 1.56 µg/mL (≈ 4.95 µM) | 51.9 µg/mL (≈ 165 µM) | 304 µM
Cn1cc([N+](=O)[O-])cc1C(=O)NNC(=O)NCCc1ccccc1 | 3.12 µg/mL (≈ 9.43 µM) | 3.12 µg/mL (≈ 9.43 µM) | 6.25 µg/mL (≈ 18.9 µM) | 2 | 1.56 µg/mL (≈ 4.71 µM) | 1.56 µg/mL (≈ 4.71 µM) | 42.1 µg/mL (≈ 127 µM) | 633 µM
Cn1cc([N+](=O)[O-])cc1C(=O)NNC(=O)NCc1ccco1 | 1.56 µg/mL (≈ 5.08 µM) | 3.12 µg/mL (≈ 10.2 µM) | 3.12 µg/mL (≈ 10.2 µM) | 2 | 1.56 µg/mL (≈ 5.08 µM) | 1.56 µg/mL (≈ 5.08 µM) | 17 µg/mL (≈ 55.3 µM) | 482 µM
Cn1cc([N+](=O)[O-])cc1C(=O)NNC(=O)NC1CCCC1 | 1.56 µg/mL (≈ 5.28 µM) | 3.12 µg/mL (≈ 10.6 µM) | 3.12 µg/mL (≈ 10.6 µM) | 2 | 1.56 µg/mL (≈ 5.28 µM) | 1.56 µg/mL (≈ 5.28 µM) | 38.7 µg/mL (≈ 131 µM) | 271 µM
O=C(NNC(=S)Nc1ccc([N+](=O)[O-])cc1)c1cc([N+](=O)[O-])c[nH]1 | 1.56 µg/mL (≈ 4.45 µM) | 3.12 µg/mL (≈ 8.92 µM) | 3.12 µg/mL (≈ 8.92 µM) | 4 | 1.56 µg/mL (≈ 4.45 µM) | 3.12 µg/mL (≈ 8.92 µM) | 0.5 µg/mL (≈ 1.43 µM) | 529 µM
COc1ccc(NC(=S)NNC(=O)c2cc([N+](=O)[O-])c[nH]2)cc1 | 1.56 µg/mL (≈ 4.65 µM) | 3.12 µg/mL (≈ 9.32 µM) | 3.12 µg/mL (≈ 9.32 µM) | 4 | 1.56 µg/mL (≈ 4.65 µM) | 3.12 µg/mL (≈ 9.32 µM) | 1.3 µg/mL (≈ 3.88 µM) | 331 µM
O=C(NNC(=S)NC1CCCCC1)c1cc([N+](=O)[O-])c[nH]1 | 1.56 µg/mL (≈ 5.01 µM) | 3.12 µg/mL (≈ 10 µM) | 3.12 µg/mL (≈ 10 µM) | 4 | 1.56 µg/mL (≈ 5.01 µM) | 3.12 µg/mL (≈ 10 µM) | 2.8 µg/mL (≈ 8.99 µM) | 204 µM
Cc1ccccc1NC(=S)NNC(=O)c1cc([N+](=O)[O-])c[nH]1 | 1.56 µg/mL (≈ 4.88 µM) | 3.12 µg/mL (≈ 9.79 µM) | 3.12 µg/mL (≈ 9.79 µM) | 4 | 1.56 µg/mL (≈ 4.88 µM) | 3.12 µg/mL (≈ 9.79 µM) | 0.67 µg/mL (≈ 2.1 µM) | 462 µM
COc1cc(NC(=S)NNC(=O)c2cc([N+](=O)[O-])c[nH]2)cc(OC)c1OC | 1.56 µg/mL (≈ 3.95 µM) | 6.25 µg/mL (≈ 15.8 µM) | 3.12 µg/mL (≈ 7.9 µM) | 4 | 3.12 µg/mL (≈ 7.9 µM) | 3.12 µg/mL (≈ 7.9 µM) | 2.7 µg/mL (≈ 6.83 µM) | 328 µM
Cn1cc([N+](=O)[O-])cc1C(=O)NNC(=S)NCCc1ccccc1 | 0.78 µg/mL (≈ 2.25 µM) | 0.78 µg/mL (≈ 2.25 µM) | 3.12 µg/mL (≈ 9 µM) | 4 | 0.39 µg/mL (≈ 1.12 µM) | 0.78 µg/mL (≈ 2.25 µM) | 23 µg/mL (≈ 66.2 µM) | 404 µM
C[C@@H]1[C@H](O)[C@@H](C)/C=C/C=C/C=C/C=C/C=C/C=C/C=C/[C@H](O[C@@H]2O[C@H](C)[C@@H](O)[C@H](N)[C@@H]2O)C[C@@H]2O[C@](O)(C[C@@H](O)C[C@@H](O)[C@H](O)CC[C@@H](O)C[C@@H](O)CC(=O)O[C@H]1C)C[C@H](O)[C@H]2C(=O)O [AMPHOTERICIN B] |  |  |  |  |  | 3.12 µg/mL (≈ 3.38 µM) |  | 
O=C(O)c1cn(C2CC2)c2cc(N3CCNCC3)c(F)cc2c1=O [CIPROFLOXACIN] |  | 3.12 µg/mL (≈ 9.43 µM) | 1.56 µg/mL (≈ 4.71 µM) |  | 1.56 µg/mL (≈ 4.71 µM) |  |  | 
NNC(=O)c1ccncc1 [ISONIAZID] |  |  |  |  |  |  | 0.4 µg/mL (≈ 2.92 µM) | 
